Reference: patent US8048872B2, “Treatment of hyperproliferative diseases with vinca alkaloid N-oxide and analogs” (Stat of Oregon Acting by and Through The Oregon State Board …, priority 2006, dated 2011)
“And” between values parts separate entries of the source, which are not always exact repeats. Equal values may be shown once. Read-outs that look alike come from different tables or passages of the source.

What was measured:
[1] = test system: multiple human solid tumor cell lines; experiment: Hypoxia-induced cytotoxicity across cell lines (HCR range); assay type: cell-based
Description: (§1) Tumor cell line were cultured in DMEM-10% FBS under standard conditions. One-hundred mm plastic culture dishes were seeded with 1×10^6 tumor cells and treated with vinca alkaloids or N-oxide analogs at a dose range of 0.01-100 nM. Cells were exposed with gentle rocking to a constant level of low oxygen (0.2% O2-5% CO2-balance N2) in a hypoxia apparatus (INVIVO2400 Hypoxia Workstation, Ruskin Technology) for 14 hr at 37° C. Identically treated cells were incubated under normoxia (air-5% CO2) at 37° C. Cells were harvested and replated in fresh medium at a density of 1×10^3 cells/well in 48-well plastic culture plates to assess viability 24-72 hr later. Briefly, Alamar Blue was added to replicate wells on Day 0 and Day 3, and cells were incubated for a further 3-6 hr at 37° C. before fluorescence readings using a plate reader (530-560 nm excitation, 590 emission). The percent inhibition of proliferation was calculated and plotted against control-treated cells at each drug concentration. […] The Hypoxia Cytotoxicity Ratio (HCR) was determined as the ratio of the IC50 of the compound under normoxic conditions vs. hypoxic conditions.

[2] = test system: H460 lung carcinoma tumor cells; assay type: cell-based, human
[3] = test system: human K562 myelogenous leukemia cells; experiment: in vivo
Description: In one example, female nude mice (n=10) were inoculated subcutaneously with 15×10^6 human K562 myelogenous leukemia cells in a 1:1 ratio with matrigel on the right flank. Tumor volumes were monitored and calculated using the formula: Tumor volume=(a^2×b/2) where ‘a’ is the smallest diameter and ‘b’ is the largest diameter. Once the established tumors reached approximately 75-150 mm^3 (individual tumor volumes may range from […]) the mice were assigned to the various vehicle control and treatment groups such that the mean tumor volumes in the treated groups were within 10% of the mean tumor weight in the vehicle control group. On the same day (day 1) and days 4, 7, 10, and 13, vinca-alkaloid N-oxide analogs (VCR-NO, VBL-NO) were administered intravenously according to a q3d×5 schedule. Mice were also treated with vehicle (negative control) and the standard agents, vinblastine and vincristine (positive controls). Tumor volumes were recorded three times a week starting when tumors were palpable and including the day of study termination. Animals were monitored for signs of toxicity and body weights were recorded twice a week starting on the first day of treatment and including the day of study termination. […] The mean day of sacrifice were calculated to determine the tumor growth delay and tumor growth inhibition effects of each test article as compared to vehicle control. […] Statistical significance between the treated vs. control groups was evaluated by logrank analysis.

[4] = test system: FaDU head and neck tumor cell lines
Description: as §1

[5] = test system: human H460 lung adenocarcinoma cells
Description: Human H460 lung adenocarcinoma tumor cells were cultured in DMEM-10% FBS under standard conditions. One-hundred mm plastic culture dishes were seeded with 1×10^6 tumor cells/dish and treated with vinca alkaloids or N-oxide analogs at a 0.01-100 nM dose range. Cells were exposed with gentle rocking to a constant level of low oxygen (0.2, 1% or 5% O2-5% CO2-balance N2) in a hypoxia apparatus (INVIVO2400 Hypoxia Workstation, Ruskin Technology) for 14 hr at 37° C. Identically treated cells were incubated under normoxia (air-5% CO2) at 37° C. Cells were harvested and replated in fresh medium at a density of 1×10^3 cells/well in 48-well plastic culture plates to assess viability 24-72 hr later. Briefly, Alamar Blue was added to replicate wells on Day 0 and Day 3, and cells were incubated for a further 3-6 hr at 37° C. before fluorescence readings using a plate reader (530-560 nm excitation, 590 emission). The percent inhibition of proliferation was calculated and plotted against control-treated cells at each drug concentration. […] The Hypoxia Cytotoxicity Ratio (HCR) was defined as ((IC50 in Hypoxia)/(IC50 in Normoxia)).

[6] = test system: Human H460 lung adenocarcinoma tumor cells
Description: Cells were exposed with gentle rocking to a constant level of low oxygen (0.2% O2-5% CO2-balance N2) in a hypoxia apparatus (INVIVO2400 Hypoxia Workstation, Ruskin Technology) for 12 hr at 37° C. Identically treated cells were incubated under normoxia (air-5% CO2) at 37° C. Cells were harvested and lysed in DNA lysis buffer (20 mM Tris-HCL, pH 8.0, 1 mM EDTA, 0.1% Triton X-100) and stored at −80° C. for analysis of DNA content and LC/MS/MS analysis. […] Lysates were mixed with 150 ml of methanol containing 0.1% acetic acid and vinca alkaloid internal standard, and vortexed for 10 min, and centrifuged for 5 min at 18000 g. Clarified supernatants were transferred to HPLC vials fitted with glass inserts and analyzed by LC-MS/MS. Chromatography was performed on an Acquity HPLC system fitted with an Acquity BEH C18 column, and used 0.1% (v:v) formic acid in water for mobile phase A, and 0.1% (v:v) formic acid in acetonitrile for mobile phase B. Mass spectral analysis was performed using a Micromass Quattro Micro triple quadupole mass spectrometer.
The amounts of each compound were calculated from standard curves.

[7] = mouse, in vivo
Description: Body weights were monitored twice weekly and up to 2 weeks following treatment. Mice were also injected ip with 4 or 6 mg/kg vinblastine using the same q3d×5 schedule as a positive control.

[8] = test system: human HL60 promyelocytic leukemia cells; details: in vivo
[9] = test system: murine P388 leukemic tumor cells; experiment: in vivo; details: mouse, in vivo
Description: For example, B6D2F1 mice (n=8/group) were inoculated subcutaneously (sc) in the right flank with 1×10^6 murine L1210 leukemic tumor cells. […] Test agents were administered on multiple treatment regimen (q3d×5) to yield optimal dose schedule benefit. Vehicle control treated mice served as the negative control group; mice treated with the bioreduced parent compounds, vincristine and vinblastine, dosed at their […] (MTDs), served as the positive control groups. Tumors were measured with calipers twice weekly and tumor volume calculated using the formula: Tumor Volume (mm^3)=((width)^2×length)/2. Animals were monitored for signs of toxicity and weighed daily for the first 5 days of the study and then twice-weekly until the study end. As pre-defined in the protocol, each animal was actively euthanized when its tumor reached the pre-determined endpoint size of 2000 mm^3 or at the conclusion of the study (day 37) whichever came first. The time to endpoint (TTE) was calculated for each mouse as TTE (days)=(log10(endpoint volume mm^3)−b)/m where b is the intercept and m is the slope of the line obtained by linear regression of a log-transformed tumor growth data set. Treatment outcome was determined from tumor growth delay (TGD) which is defined as the increase in median TTE in a treatment (T) group as compared to the control (C) group (TGD=T−C) expressed in days or as a percentage of the median TTE of the control group % TGD=((T−C)/C)×100. […] Statistical significance between the treated vs. control groups was evaluated by logrank analysis.
This model was developed by subcutaneously inoculating B6D2F1 mice (n=8/group) with 1×10^6 murine P388 leukemic tumor cells using similar methodology to that described above for L1210. […] Agents were administered on multiple treatment regimen (q3d×5) to yield optimal dose schedule benefit. Efficacy of treatment with the N-oxide analogs was determined by Tumor Growth Delay (TGD) and Kaplan-Meier survival analysis as described for L1210, the exception being that the conclusion of the study was day 45 or the predefined endpoint size of 2000 mm^3 whichever came first. Vehicle control treated mice served as the negative control group; mice treated with the standard agents, vincristine and vinblastine, dosed at their MTDs, served as the positive control groups.

[10] = test system: human HT29 colorectal adenocarcinoma; set-up: species or system mouse; details: in vivo
[11] = test system: A549 non-small cell lung carcinoma
Description: as §1

[12] = mouse, in vivo; remark: listed apart in the source
Description: Body weights were monitored twice weekly and up to 2 weeks following treatment. Mice were also injected iv with 0.6 or 1 mg/kg vincristine using the same q3d×5 schedule as a positive control.

Description for SiHa: as §1

Structure (SMILES) | HCR values [1] | Hypoxia Cytotoxicity Ratio [2] | IC50 inhibitory activity after activation under hypoxia [2] | Tumor Growth Inhibition [3] | Hypoxia Cytotoxicity Ratio (HCR) (SiHa) | Hypoxia Cytotoxicity Ratio (HCR) [4] | cytotoxicity vs oxygen concentration [5] | bioreduction to parent compound [6] | body weight loss / gross symptoms of toxicity [7] | Tumor Growth Inhibition [8] | Tumor Growth Delay [9] | Tumor Growth Delay [10] [%] | Hypoxia Cytotoxicity Ratio (HCR) [11] | body weight loss / gross symptoms of toxicity [12]
CC[C@]1(O)C[C@H]2C[C@](C(=O)OC)(c3cc4c(cc3OC)N(C)[C@H]3[C@@](O)(C(=O)OC)[C@H](OC(C)=O)[C@]5(CC)C=CCN6CC[C@]43[C@@H]65)c3[nH]c4ccccc4c3CC[N@+]([O-])(C2)C1 [Vinblastine N-oxide, Vinblastine N′b-Oxide] | 3-21 | ~20 | low nanomolar | 77% and 89% | 4.3 | 7.5 | Increased cytotoxicity | bioreduced to vinblastine under hypoxia exposure | no evidence of significant body weight loss or gross symptoms of toxicity | 91% and 94% | – | – | – | –
CC[C@]1(O)C[C@@H]2C[C@](C(=O)OC)(c3cc4c(cc3OC)N(C=O)[C@H]3[C@@](O)(C(=O)OC)[C@@H](OC(C)=O)[C@]5(CC)C=CCN6CC[C@]43[C@@H]65)c3[nH]c4ccccc4c3CC[N@+]([O-])(C2)C1 [Vincristine N-oxide, Vincristine N′b-Oxide] | 5-25 | – | – | 69% and 84% and 60% | – | 6 | – | bioreduced to vincristine under hypoxia exposure | – | 94% and 96% | 76% and 54% | 42 | 11.2 | no evidence of significant body weight loss or gross symptoms of toxicity
